Assay results taken from patent US12570605B2, “Indole compounds, and preparation methods, and uses thereof” (Shenzhen 01 Life Science and Technology Co., Ltd., priority 2021, dated 2026).
“Also recorded” adds a separate entry of the source.

Assays:
[1] = tested on: mouse model with ear AD-like symptoms induced by calcipotriol (MC903); test: Mouse model with ear AD-like symptoms induced by calcipotriol (MC903), first batch of experiments (Embodiment 32); type: in vivo, BALB/c mouse; details: MC903 6.9 nmol/mouse every day; for therapeutic effects on AD-like symptoms in the ear of mice (combined with ear inflammation and tissue HE staining): 11 days
Description: (§1) A mouse model with ear AD-like symptoms induced by calcipotriol (MC903) was used to investigate these compounds in terms of the treatment activity for AD.
(§2) Referring to the Patent with a publication number of CN 110368386 A, a mouse model induced by MC903 (Calcipotriene) was prepared, wherein both ears of the BALB/c mouse model were applied with MC903, MC903+indole-3-aldehyde (IAId), or MC903+the compound prepared from the embodiments for 11 consecutive days, respectively, and total serum IgE levels, ear thicknesses, and weight loss in relative to the weight at the beginning of the experiment were tested at the end of the experiment.
(§3) The data shown in the results were average values ±SD of five independently repeated trials. Significance analysis was performed using Mann-Whitney test on the differences of corresponding parameters of the mice with the treatment group (MC903+ethanol (EtOH)), which was only administrated with MC903, wherein * indicated P<0.05, ** indicated P<0.01; *** indicated P<0.001.
In this batch of experiments, the dosage of MC903, a drug for constructing the models, was 6.9 nmol/mouse every day, and the experimental results of Compounds 1, 2, 3, 6, 7, 19, 20, 28, 29, 30, 34, 37, 38, and 39 in this batch were shown in FIGS. 11 to 13.
EtOH group was a Blank control group, which was only administrated with ethanol. MC903+ EtOH group was a model control group, which was administrated with Calcipotriene and ethanol. The remaining groups were the groups which were administered with MC903 to construct the model, and then administrated with different drugs. Indole-3-aldehyde (IAId) group was the group administered with IAId, indole-3-methanol (I3C) group was the group administered with I3C. The other compound groups were the groups administered with corresponding compounds.

[2] = tested on: mouse model with ear AD-like symptoms induced by calcipotriol (MC903); test: Optimum effective concentration in treatment of AD-like symptoms, MC903 mouse model (Embodiment 33); type: in vivo; details: dosages per Table 11; vs group only administrated with MC903
Description: The above screened compounds having therapeutic effect on AD-like symptoms were selected to further determine the optimum effective concentration.
Referring to the animal model method in the Embodiment 32, dosages of drugs for each group were determined according to the table below, and the optimal effective concentration in treatment of AD-like symptoms was explored by comparing the differences in ear thicknesses, the total serum IgE levels and the weight loss of the mice with those of the treatment group only administrated with MC903.

[3] = tested on: mouse model with ear AD-like symptoms induced by calcipotriol (MC903); test: Mouse model with ear AD-like symptoms induced by calcipotriol (MC903), second batch of experiments (Embodiment 32); type: in vivo, BALB/c mouse; details: MC903 5 nmol/mouse every day, 9 days; for therapeutic effects on AD-like symptoms in the ear of mice (ear inflammation, tissue HE staining, parameters of multiple experiments): screening over both batches
Description: as §1, §2, §3
Therefore, in the second batch of drug tests, the dosage of MC903 was decreased to 5 nmol/mouse every day, and the test period was reduced to 9 days.
EtOH group was a Blank control group, which was only administrated with ethanol. MC903+ EtOH group was a model control group, which was administrated with Calcipotriene and ethanol. The remaining groups were the groups which were administered with MC903 to construct the model, and then administered with different drugs. Indole-3-aldehyde (IAId) group was the group administered with IAId. Indole-3-methanol (I3C) group was the group administered with I3C. The other compound groups were the groups administered with corresponding compounds.

[4] = both ears, 11 consecutive days, vs model control group (MC903+EtOH), Mann-Whitney test
[5] = vs model control group (MC903+EtOH), Mann-Whitney test

Structure (SMILES)	therapeutic effects on AD-like symptoms in the ear of mice (combined with ear inflammation and tissue HE staining) [1]	reducing ear thicknesses of the mice [1, 4]	reducing the total serum IgE levels of the mice [1, 4]	inhibitory effect on systematic inflammation (lower total serum IgE levels and improvement on AD-like symptoms in the mice ear) [2]	therapeutic effects on AD-like symptoms in the ear of mice (ear inflammation, tissue HE staining, parameters of multiple experiments) [3]	reducing ear thicknesses of the mice [3, 5]	reducing the total serum IgE levels of the mice [3, 5]
CCCCCCCC(=O)OCn1cc(C=O)c2ccccc21 [Compound 29, (3-formyl-1H-indol-1-yl)methyl octanoate]	significant therapeutic effects	statistically significant difference; also recorded: excellent effects	statistically significant difference	good inhibitory effect	therapeutic effects	statistically significant difference	–
CCCCCCCC(=O)OCn1cc(CO)c2ccccc21 [Compound 38, (3-(hydroxymethyl)-1H-indol-1-yl)methyl octanoate]	significant therapeutic effects	–	statistically significant difference; also recorded: excellent effects	good inhibitory effect; also recorded: excellent inhibitory effect	therapeutic effects	statistically significant difference	statistically significant difference
